Biological target: Ras-related C3 botulinum toxin substrate 1 (Mus musculus, UniProt P63001)
Experiment: inhibitors of activated mutant Rac1 GTP binding, dose response, biochemical, multiplex, GST-Rac1 beads, Bodipy-FL-GTP, flow cytometry (AID 1339)

Row | Structure (SMILES) | EC50 [µM]
1 | CNC(=S)N/N=C1\C(=O)Nc2ccccc21 [1-methyl-3-[(2-oxoindol-3-yl)amino]thiourea] | 91.6
2 | O=C1C([N+](=O)[O-])=Cc2oc3c(c2C1/C=N/Cc1ccccc1)CCCC3 (configuration not stated) [(1Z)-3-nitro-1-[[(phenylmethyl)amino]methylidene]-6,7,8,9-tetrahydrodibenzofuran-2-one] | 5.79

— BindingDB's records for doi:10.7270/Q2PC30S2 (Nmmlsc, 2010)
